Laboratory results reported in the NIST ThermoML archive (doi:10.1021/je3007666).
Numbers after ± are expanded uncertainties.

Assay: relative permittivity at zero frequency (dimensionless); xn = mol fraction of the nth substance listed
Conditions: 100 kPa, Liquid, Dielectrometer

CC(C)(C)O [2-methylpropan-2-ol] + CCCCO
relative permittivity at zero frequency
Conditions	288.15 K	293.15 K	298.15 K	303.15 K	308.15 K
x1 = 0.0501	18.96 ± 0.06	18.21 ± 0.06	17.49 ± 0.06	16.81 ± 0.06	16.12 ± 0.06
x1 = 0.1012	18.93 ± 0.06	18.16 ± 0.06	17.42 ± 0.06	16.68 ± 0.06	15.97 ± 0.06
x1 = 0.1503	18.85 ± 0.06	18.04 ± 0.06	17.29 ± 0.06	16.53 ± 0.06	15.81 ± 0.06
x1 = 0.2003	18.75 ± 0.06	17.92 ± 0.06	17.15 ± 0.06	16.37 ± 0.06	15.62 ± 0.06
x1 = 0.2497	18.61 ± 0.06	17.79 ± 0.06	16.99 ± 0.06	16.19 ± 0.06	15.44 ± 0.06
x1 = 0.299	18.48 ± 0.06	17.63 ± 0.06	16.85 ± 0.06	16.01 ± 0.06	15.25 ± 0.06
x1 = 0.349	18.36 ± 0.06	17.5 ± 0.06	16.69 ± 0.06	15.83 ± 0.06	15.07 ± 0.06
x1 = 0.3993	18.25 ± 0.06	17.35 ± 0.06	16.53 ± 0.06	15.65 ± 0.06	14.87 ± 0.06
x1 = 0.4505	18.13 ± 0.06	17.22 ± 0.06	16.38 ± 0.06	15.45 ± 0.06	14.63 ± 0.06
x1 = 0.5001	18.01 ± 0.06	17.06 ± 0.06	16.19 ± 0.06	15.25 ± 0.06	14.42 ± 0.06
x1 = 0.5511	17.89 ± 0.06	16.91 ± 0.06	16.01 ± 0.06	15.02 ± 0.06	14.15 ± 0.06
x1 = 0.5998	17.74 ± 0.06	16.73 ± 0.06	15.82 ± 0.06	14.79 ± 0.06	13.89 ± 0.06
x1 = 0.649	17.6 ± 0.06	16.54 ± 0.06	15.58 ± 0.06	14.51 ± 0.06	13.59 ± 0.06
x1 = 0.7001	17.39 ± 0.06	16.31 ± 0.06	15.32 ± 0.06	14.21 ± 0.06	13.25 ± 0.06
x1 = 0.7503	17.15 ± 0.06	16.03 ± 0.06	15 ± 0.06	13.88 ± 0.06	12.89 ± 0.06
x1 = 0.8003	16.84 ± 0.06	15.7 ± 0.06	14.63 ± 0.06	13.48 ± 0.06	12.49 ± 0.06
x1 = 0.8497	16.45 ± 0.06	15.26 ± 0.06	14.21 ± 0.06	13.03 ± 0.06	12.04 ± 0.06
x1 = 0.899	15.96 ± 0.06	14.77 ± 0.06	13.71 ± 0.06	12.53 ± 0.06	11.55 ± 0.06
x1 = 0.95	15.29 ± 0.06	14.15 ± 0.06	13.15 ± 0.06	11.97 ± 0.06	11 ± 0.06
x1 = 1	14.49 ± 0.06	13.38 ± 0.06	12.49 ± 0.06	11.34 ± 0.06	10.4 ± 0.06

CCC(C)O (stereo not given) [butan-2-ol] + CCCCO
relative permittivity at zero frequency
Conditions	288.15 K	293.15 K	298.15 K	303.15 K	308.15 K
x1 = 0.0501	18.97 ± 0.06	18.24 ± 0.06	17.54 ± 0.06	16.86 ± 0.06	16.21 ± 0.06
x1 = 0.0987	18.93 ± 0.06	18.2 ± 0.06	17.49 ± 0.06	16.81 ± 0.06	16.16 ± 0.06
x1 = 0.1506	18.89 ± 0.06	18.15 ± 0.06	17.44 ± 0.06	16.76 ± 0.06	16.1 ± 0.06
x1 = 0.1998	18.86 ± 0.06	18.11 ± 0.06	17.4 ± 0.06	16.71 ± 0.06	16.05 ± 0.06
x1 = 0.2503	18.82 ± 0.06	18.07 ± 0.06	17.35 ± 0.06	16.65 ± 0.06	15.99 ± 0.06
x1 = 0.2986	18.79 ± 0.06	18.03 ± 0.06	17.3 ± 0.06	16.6 ± 0.06	15.93 ± 0.06
x1 = 0.3512	18.75 ± 0.06	17.99 ± 0.06	17.25 ± 0.06	16.54 ± 0.06	15.87 ± 0.06
x1 = 0.3977	18.72 ± 0.06	17.95 ± 0.06	17.2 ± 0.06	16.49 ± 0.06	15.81 ± 0.06
x1 = 0.4497	18.69 ± 0.06	17.91 ± 0.06	17.16 ± 0.06	16.43 ± 0.06	15.74 ± 0.06
x1 = 0.4998	18.67 ± 0.06	17.87 ± 0.06	17.11 ± 0.06	16.37 ± 0.06	15.68 ± 0.06
x1 = 0.5501	18.64 ± 0.06	17.83 ± 0.06	17.06 ± 0.06	16.32 ± 0.06	15.61 ± 0.06
x1 = 0.6011	18.61 ± 0.06	17.79 ± 0.06	17.01 ± 0.06	16.26 ± 0.06	15.54 ± 0.06
x1 = 0.649	18.59 ± 0.06	17.76 ± 0.06	16.96 ± 0.06	16.2 ± 0.06	15.47 ± 0.06
x1 = 0.7005	18.57 ± 0.06	17.72 ± 0.06	16.91 ± 0.06	16.14 ± 0.06	15.4 ± 0.06
x1 = 0.7511	18.55 ± 0.06	17.68 ± 0.06	16.86 ± 0.06	16.07 ± 0.06	15.32 ± 0.06
x1 = 0.7986	18.53 ± 0.06	17.65 ± 0.06	16.81 ± 0.06	16.01 ± 0.06	15.25 ± 0.06
x1 = 0.8498	18.51 ± 0.06	17.62 ± 0.06	16.76 ± 0.06	15.95 ± 0.06	15.17 ± 0.06
x1 = 0.9006	18.5 ± 0.06	17.58 ± 0.06	16.71 ± 0.06	15.88 ± 0.06	15.09 ± 0.06
x1 = 0.9487	18.48 ± 0.06	17.55 ± 0.06	16.66 ± 0.06	15.82 ± 0.06	15.01 ± 0.06
x1 = 1	18.47 ± 0.06	17.51 ± 0.06	16.6 ± 0.06	15.75 ± 0.06	14.94 ± 0.06

CC(C)CO [2-methyl-1-propanol] + CCC(C)O
relative permittivity at zero frequency
Conditions	288.15 K	293.15 K	298.15 K	303.15 K	308.15 K
x2 = 0	19.51 ± 0.06	18.71 ± 0.06	17.96 ± 0.06	17.23 ± 0.06	16.53 ± 0.06
x2 = 0.0488	19.46 ± 0.06	18.66 ± 0.06	17.9 ± 0.06	17.17 ± 0.06	16.47 ± 0.06
x2 = 0.1011	19.41 ± 0.06	18.61 ± 0.06	17.85 ± 0.06	17.11 ± 0.06	16.4 ± 0.06
x2 = 0.1488	19.36 ± 0.06	18.55 ± 0.06	17.78 ± 0.06	17.05 ± 0.06	16.34 ± 0.06
x2 = 0.2005	19.31 ± 0.06	18.49 ± 0.06	17.72 ± 0.06	16.98 ± 0.06	16.27 ± 0.06
x2 = 0.2489	19.25 ± 0.06	18.43 ± 0.06	17.66 ± 0.06	16.92 ± 0.06	16.2 ± 0.06
x2 = 0.3013	19.2 ± 0.06	18.38 ± 0.06	17.59 ± 0.06	16.85 ± 0.06	16.13 ± 0.06
x2 = 0.3511	19.14 ± 0.06	18.31 ± 0.06	17.53 ± 0.06	16.78 ± 0.06	16.05 ± 0.06
x2 = 0.3993	19.09 ± 0.06	18.25 ± 0.06	17.46 ± 0.06	16.7 ± 0.06	15.97 ± 0.06
x2 = 0.4473	19.03 ± 0.06	18.19 ± 0.06	17.39 ± 0.06	16.63 ± 0.06	15.89 ± 0.06
x2 = 0.4984	18.98 ± 0.06	18.13 ± 0.06	17.32 ± 0.06	16.56 ± 0.06	15.81 ± 0.06
x2 = 0.5512	18.92 ± 0.06	18.06 ± 0.06	17.25 ± 0.06	16.48 ± 0.06	15.73 ± 0.06
x2 = 0.5999	18.87 ± 0.06	18 ± 0.06	17.18 ± 0.06	16.4 ± 0.06	15.65 ± 0.06
x2 = 0.649	18.81 ± 0.06	17.94 ± 0.06	17.1 ± 0.06	16.32 ± 0.06	15.56 ± 0.06
x2 = 0.7017	18.76 ± 0.06	17.88 ± 0.06	17.03 ± 0.06	16.24 ± 0.06	15.48 ± 0.06
x2 = 0.7502	18.71 ± 0.06	17.81 ± 0.06	16.96 ± 0.06	16.16 ± 0.06	15.39 ± 0.06
x2 = 0.7989	18.66 ± 0.06	17.75 ± 0.06	16.89 ± 0.06	16.08 ± 0.06	15.3 ± 0.06
x2 = 0.851	18.61 ± 0.06	17.69 ± 0.06	16.81 ± 0.06	16 ± 0.06	15.21 ± 0.06
x2 = 0.9003	18.56 ± 0.06	17.63 ± 0.06	16.74 ± 0.06	15.92 ± 0.06	15.12 ± 0.06
x2 = 0.9499	18.51 ± 0.06	17.57 ± 0.06	16.67 ± 0.06	15.83 ± 0.06	15.03 ± 0.06

CC(C)CO [2-methyl-1-propanol] + CCCCO
relative permittivity at zero frequency
Conditions	288.15 K	293.15 K	298.15 K	303.15 K	308.15 K
x1 = 0.0505	19.03 ± 0.06	18.3 ± 0.06	17.59 ± 0.06	16.92 ± 0.06	16.26 ± 0.06
x1 = 0.1011	19.05 ± 0.06	18.31 ± 0.06	17.61 ± 0.06	16.93 ± 0.06	16.27 ± 0.06
x1 = 0.1496	19.06 ± 0.06	18.33 ± 0.06	17.62 ± 0.06	16.94 ± 0.06	16.28 ± 0.06
x1 = 0.2001	19.08 ± 0.06	18.34 ± 0.06	17.63 ± 0.06	16.95 ± 0.06	16.29 ± 0.06
x1 = 0.2488	19.1 ± 0.06	18.36 ± 0.06	17.65 ± 0.06	16.97 ± 0.06	16.31 ± 0.06
x1 = 0.3011	19.12 ± 0.06	18.38 ± 0.06	17.66 ± 0.06	16.98 ± 0.06	16.32 ± 0.06
x1 = 0.3497	19.14 ± 0.06	18.4 ± 0.06	17.68 ± 0.06	16.99 ± 0.06	16.33 ± 0.06
x1 = 0.399	19.16 ± 0.06	18.41 ± 0.06	17.7 ± 0.06	17.01 ± 0.06	16.34 ± 0.06
x1 = 0.4511	19.18 ± 0.06	18.43 ± 0.06	17.71 ± 0.06	17.02 ± 0.06	16.36 ± 0.06
x1 = 0.5021	19.21 ± 0.06	18.44 ± 0.06	17.73 ± 0.06	17.04 ± 0.06	16.37 ± 0.06
x1 = 0.5489	19.23 ± 0.06	18.46 ± 0.06	17.75 ± 0.06	17.06 ± 0.06	16.39 ± 0.06
x1 = 0.6004	19.26 ± 0.06	18.5 ± 0.06	17.77 ± 0.06	17.07 ± 0.06	16.4 ± 0.06
x1 = 0.6488	19.28 ± 0.06	18.52 ± 0.06	17.79 ± 0.06	17.09 ± 0.06	16.42 ± 0.06
x1 = 0.6975	19.31 ± 0.06	18.55 ± 0.06	17.81 ± 0.06	17.11 ± 0.06	16.43 ± 0.06
x1 = 0.751	19.34 ± 0.06	18.57 ± 0.06	17.83 ± 0.06	17.13 ± 0.06	16.45 ± 0.06
x1 = 0.8004	19.37 ± 0.06	18.6 ± 0.06	17.86 ± 0.06	17.15 ± 0.06	16.46 ± 0.06
x1 = 0.848	19.4 ± 0.06	18.62 ± 0.06	17.88 ± 0.06	17.17 ± 0.06	16.48 ± 0.06
x1 = 0.8995	19.43 ± 0.06	18.65 ± 0.06	17.9 ± 0.06	17.19 ± 0.06	16.5 ± 0.06
x1 = 0.9506	19.47 ± 0.06	18.68 ± 0.06	17.93 ± 0.06	17.21 ± 0.06	16.52 ± 0.06
x1 = 1	19.51 ± 0.06	18.71 ± 0.06	17.96 ± 0.06	17.23 ± 0.06	16.53 ± 0.06
